Assay results as given in patent publication EP1010435A1, “NANOCAPSULE PREPARATIONS FOR TREATING INTRAARTICULAR DISEASES” (Maruho K.K., priority 1997, dated 1999).

Tested on: rabbit models in which adjuvant arthritis was induced with ovalbumin (FCA)
Assay: Rabbit adjuvant arthritis model, intra-articular administration simultaneously with boosting
Format: in vivo, rabbits
Description: Produced were rabbit models in which adjuvant arthritis was induced with ovalbumin (FCA) according to the method of E.R.Pettipher et al. (Br.J.Exp.Path., 69, 113-122, (1988)). Three weeks after sensitization, the models were boosted again with ovalbumin at knees. Simultaneously with boosting, the sample of the present invention was administered in articular cavities.
An aqueous solution of betamethasone sodium phosphate so prepared that the amount of the medicament (BSP) was the same, 3mg, and physiological saline alone were administered in articular cavities as a control and as a blank test, respectively, simultaneously with boosting.
The outside diameter of the knees of rabbits were measured with a caliper 1 day, 3 days, 7 days, 14 days, 21 days, 28 days, 35 days and 42 days after administration. Skin temperature at the knees was measured with a contact-type surface thermometer.
The outside diameter of the knees and temperature measured with time are shown as values obtained by subtracting reference values from the measured values. The reference values are those before the boosting at the knees.
Further, blood was collected from rabbits 2 weeks, 4 weeks and 6 weeks after boosting, and the production of antibodies for ovalbumin was mesured by the ELISA method (according to the same reference by E.R.Pettipher). In addition, 6 weeks after boosting, the knee joints of rabbits are opened, and the inside of the articular cavities and surrounding tissue were morphologically observed.

C[C@H]1C[C@H]2[C@@H]3CCC4=CC(=O)C=C[C@]4(C)[C@@]3(F)[C@@H](O)C[C@]2(C)[C@@]1(O)C(=O)COP(=O)(O)O [betamethasone sodium phosphate]
temperature of knees (surface skin temperature, increase) (1 to 42 days after administration, 3 mg BSP intra-articular): fever due to inflammation was suppressed | swell of knees (outside diameter, increase over value before boosting), later course (after day 1 up to 5 weeks and later, 3 mg BSP intra-articular): almost the same swell as in the case of physiological saline | swell of knees (outside diameter, increase over value before boosting) (one day after intra-articular administration, 3 mg BSP): suppressed
